# Source: publication PMC3703888, “Integration of Different “-omics” Technologies Identifies Inhibition of the IGF1R-Akt-mTOR Signaling Cascade Involved in the Cytotoxic Effect of Shikonin against Leukemia Cells” (Evidence-based Complementary and Alternative Medicine : eCAM, 2013)
# Entries after “also recorded” stand apart in the source; their conditions may differ.
# Experiments:
# U937 cells = experiment: Stable-isotope dimethyl labeling quantitative proteomics; assay type: cell-based; conditions: 0.3 μM shikonin (IC50), 24 h vs DMSO
# Protocol: To examine quantitative changes in the proteome of U937 leukemia cells after shikonin treatment, the dimethyl labeling proteomics analysis was performed. Briefly, 5 × 10^6 U937 cells were seeded in 10 mL RPMI 1640 medium in a 25 cm^2 culture flask. Subsequently, cells were treated with 0.3 μM shikonin (IC50) or DMSO as solvent control for 24 h. After incubation cells were washed with PBS and protein extraction was performed using the M-PER Mammalian Protein Extraction Reagent (Thermo Scientific, Germany) containing a protease inhibitor cocktail (Roche, Germany), cells were incubated with the extraction reagent for 40 min at 4°C. After incubation, cellular debris was removed by centrifugation at 14000 ×g for 15 min. Supernatants were transferred into new tubes and an acetone precipitation of the proteins was performed. After precipitation, the acetone was removed and the protein pellet in each of the tube was further diluted to 1 μg/μL with 50 mM TEABC and reduced with 5 mM TCEP for 1 h at 37°C, followed by alkylation using 2 mM MMTS for 45 min at room temperature. For the proteolytic digestion, the modified tube-gel digestion protocol was applied and the detergent residue was checked using the method described previously. Two 200 μg proteolytic protein mixtures from DMSO and shikonin treated cells were first dissolved in 200 μL of 100 mM TEABC (pH 8.5) and, respectively, mixed with 20 μL of formaldehyde and formaldehyde-13C, d2 (4%, diluted with H2O). After vortexing (5 min) and centrifugation, each of the sample solutions was mixed with 20 μL of 600 mM sodium cyanoborohydride solution. The sample solutions were vortexed (10 min) and centrifuged again and then allowed to react for 30 min at 25°C. To quench the reaction, ammonium hydroxide (7% in water, 10 μL) was added to each sample solution. Finally, 16 μL of formic acid was added to acidify each of the sample solutions and two samples were further combined for strong cation exchange (SCX) fractionation.
# For SCX fractionation, the buffer SCX-A (5 mM KH2PO4 in 25% ACN at pH 3) and SCX-B (5 mM KH2PO4 and 350 mM KCl in 25% ACN at pH 3) were used as the mobile phase. The peptide mixtures were reconstituted in buffer SCX-A and then loaded into a PolySULFOETHYL A column (200 × 2.1 mm, 5 μm, 300Å, PolyLC, Columbia, MD) for 10 min at the flow rate of 0.2 mL/min. Peptides were fractionated using a 75 min gradient from 0 to 100% of buffer SCX-B. Fractions were collected every three minutes from the retention time of 10 to 55 min using a fraction collector (BioFrac Fraction Collector, BioRad Laboratories, Hercules, CA). The peptide mixtures in each of the fraction were further analyzed by the LC-MS/MS.
# LC-MS/MS analysis was performed with a nanoUHPLC system (nanoACQUITY UPLC, Waters, Millford, MA) coupled online to the nanoelectrospray source of a hybrid quadrupole time-of-flight mass spectrometer (Q-TOF-MS) (SYNAPT HDMS G2, Waters, Manchester, UK). For LC-MS/MS analysis, water with 0.1% FA and ACN with 0.1% FA were used as the mobile phase. The sample was injected into a trap column (Symmetry C18, 5 μm, 180 μm × 20 mm, Waters, Milford, MA) and separated online with a reverse phase column (BEH C18, 1.7 μm, 75 μm × 250 mm, Waters, Milford, MA) at the flow rate of 300 nL/min using either a 95 min gradient with 5–90% ACN/water ratio. The mass spectrometry instruments were all operated in the positive ion mode, and data-dependent acquisition methods were applied for all experiments. The acquisition settings were set to one full MS scan (350–1600 m/z) with a scan time of 1 second and switched to six product ion scans (50–1900 m/z) with 0.4 second scan time when a precursor ion charge was 2+, 3+, or 4+, and the intensity was higher than 200 counts. The data files generated from LC-MS/MS were processed by UniQua and further analyzed by the MASCOT and Trans Proteomics Pipeline (TPP) 1 version 4.4 rev. 1, and the details and criteria of data processing were described previously.
# p-ribosomal protein S6 = experiment: FlowCellect PI3K-mTOR signaling cascade assay (flow cytometry), p-ribosomal protein S6; assay type: cell-based; conditions: U937 cells, 0.3 μM shikonin, 24 h
# Source text: The FlowCellect PI3K-mTOR signaling cascade assay kit (Merck Millipore, Germany) was used to analyze the effect of shikonin on the PI3K-mTOR signaling pathway. The assay is based on two directly conjugated phospho-specific signaling antibodies against phosphorylated Akt and phosphorylated ribosomal S6 protein, which are both important signaling nodes of the mTOR cascade. The phosphorylation of Akt is indicative of the upstream PI3K signaling, marking the cells initiation into proliferation or cell survival. Phosphorylated-ribosomal S6 protein is indicative of downstream mTOR and p70S6K signaling leading to protein translation. The assay was performed according to the manufacture's protocol. Briefly, 1.5 × 10^6 U937 cells were treated with 0.3 μM shikonin or DMSO solvent control and incubated for 24 h. Subsequently, cells were fixed on ice for 20 min using the supplied fixation buffer. […] Subsequently, cells were measured in a LSR-Fortessa FACS analyzer (Becton-Dickinson, Germany) and shikonin fluorescence was compensated for the respective channels. For each sample, 1 × 10^4 cells were counted. The PerCP signal was measured with 488 nm excitation and detected using a 670/30 nm bandpass filter. The Alexa Fluor 488 signal was analyzed with 488 nm excitation and detected using a 530/30 nm bandpass filter. […] Cytographs were analyzed using FlowJo software (Celeza, Switzerland). […]
compound,measurement,setting,value
CC(C)=CC[C@@H](O)C1=CC(=O)c2c(O)ccc(O)c2C1=O [shikonin],FC protein 5′-Nucleotidase domain-containing protein 2,U937 cells,−5.4
same,FC protein 60S ribosomal protein L24,U937 cells,−7.5
same,FC protein ATP-dependent RNA helicase DDX3Y,U937 cells,−4.3
same,FC protein Cell differentiation protein RCD1 homolog,U937 cells,+10.0
same,FC protein Golgi phosphoprotein 3,U937 cells,−3.5
same,FC protein Heme oxygenase 1,U937 cells,+14.3
same,FC protein Heterogeneous nuclear ribonucleoprotein H2,U937 cells,−4.5
same,FC protein Hexokinase-1,U937 cells,−20.5
same,FC protein Histone H2B type 2-E,U937 cells,+7.1
same,FC protein Histone H4,U937 cells,+11.1
same,FC protein LIM domain and actin-binding protein 1,U937 cells,+6.7
same,FC protein Leucine-rich repeat-containing protein 58,U937 cells,−3.5
same,FC protein Mannose-6-phosphate isomerase,U937 cells,+7.7
same,FC protein Methylosome protein 50,U937 cells,−4.0
same,FC protein Neuronal-specific septin-3,U937 cells,+6.7
same,FC protein Rho GTPase-activating protein 4,U937 cells,−3.1
same,FC protein Schlafen family member 11,U937 cells,+6.7
same,FC protein Sorting nexin-17,U937 cells,+9.1
same,FC protein Vacuolar protein sorting-associated protein 11 homolog,U937 cells,−20.0
same,FC protein WD repeat-containing protein 3,U937 cells,+12.1
same,Phosphorylation of ribosomal protein S6,p-ribosomal protein S6,remained almost unchanged; also recorded: no effect
